This is an account of results in patent US20120189677A1, “FORMULATIONS” (priority 2011, published 2012).

Like-named read-outs stand apart in the source and are kept apart here.

A short description of data set [1]: Clarity of surfactant/lipid compositions with or without maltodextrin (Example 2). In kind it is physicochemical. The settings on record: surfactant at % given in row, S-75 lipid, low temperature process; for Clarity with maltodextrin (2%): 2% maltodextrin; for Clarity without maltodextrin: no maltodextrin.
Data set [2] in a line: Particle size analysis (FIG. 3). The class given is physicochemical. The settings on record: Brij35P 7.0% w/w, S-75 1% w/w, maltodextrin 2% w/w; 25:2 dilution.
For data set [3] the following is noted: approximate average of manufacturer and literature values; cited from earlier work.
The nature of data set [4]: Turbidity of surfactant added to standard maltodextrin/lipid emulsion at room temperature (Example 1). The class given is physicochemical. The settings on record: surfactant 7% w/w in emulsion of 2% C* Dry MD 01958 maltodextrin and 1% S-75 lipid.
The nature of data set [5]: HLB values of surfactants (manufacturer/literature or equation). The note with it: from HLB=20[1-(S/A)], S 45.5, A 276. In kind it is physicochemical.

As to Laureth-23 [Brij 35P], in data set [1], the “Clarity with maltodextrin (2%)” value worked out at 128.1 FNU and the Clarity without maltodextrin was determined as 184 FNU. For the same substance, in data set [2], the polydispersity is reported as 0.625 and the principal/dominant particle size was determined as 8.68 nm.

With Nonoxynol-9, the HLB in data set [3] is given as 12.9. The “Turbidity (FNU)” value in data set [4] is 8.87 FNU.

Regarding Nonoxynol-10, the HLB in data set [3] is 13.6. In data set [4], the “Turbidity (FNU)” value stood at 8.29 FNU.

For the substance Nonoxynol-40, the HLB in data set [3] is on record as 17.8. For the same substance, in data set [4], the “Turbidity (FNU)” value was >150 FNU.

With Octoxynol-5, the HLB in data set [3] is 10.4. Moreover, the “Turbidity (FNU)” value in data set [4] is >150 FNU.

Regarding Octoxynol-9, the “Turbidity (FNU)” value in data set [4] is listed as 7.75 FNU.

For the substance Octoxynol-12, in data set [3], the HLB was 14.5. Further, the “Turbidity (FNU)” value in data set [4] is reported as 4.32 FNU.

For Octoxynol-16, the “Turbidity (FNU)” value in data set [4] was determined as 7.55 FNU.

Turning to Octoxynol-30, the HLB in data set [3] was 17.1. In addition, the “Turbidity (FNU)” value in data set [4] is on record as >150 FNU.

With Octoxynol-40, the HLB in data set [3] is reported as 17.9. Moreover, the “Turbidity (FNU)” value in data set [4] is >150 FNU.

Substance Polysorbate-20 [Polysorbate 20] registered an HLB in data set [5] of 16.7. Besides, in data set [1], the “Clarity with maltodextrin (2%)” value is recorded as 59.5 FNU and the Clarity without maltodextrin was 79.5 FNU.
